Reference: patent publication US9598407B2, “Antibacterial piperidinyl substituted 3,4-dihydro-1H-[1,8]naphthyridinones” (JANSSEN SCIENCES IRELAND UC, priority 2011, dated 2017)

Experiments:
[1] = biological target: S. aureus ATCC 29213 FabI (Staphylococcus aureus (strain MRSA252), UniProt Q6GI75); assay: Staphylococcus aureus FabI enzyme inhibition assay; assay type: biochemical; conditions: 30 minutes at room temperature, pH 6.5
Method: D.1 FabI Enzyme Inhibition: Staphylococcus aureus FabI Enzyme Inhibition Assay
FabI enzyme inhibition assays were carried out in half-area, 384-well microtitre plates. Compounds were evaluated in 40-μl assay mixtures containing 100 mM NaADA, pH 6.5 (ADA=N-[2-acetamido]-2iminodiacetic acid), 250 μM crotonoyl-CoA, 625 μM NADH and 50 μg/ml S. aureus ATCC 29213 FabI Inhibitors were typically varied over the range of 50 to 0.39 μM. The reaction mixtures were incubated for 30 minutes at room temperature and the reaction was stopped by adding 200 mM Tris buffer (pH 9.0) to create a pH-shift. The consumption of NADH was monitored by measuring the change in absorbance at […]. By comparing sample readings to those of negative (absence of compound) and positive (absence of enzyme) controls, the percent inhibition of enzymatic activity of the compounds was determined A best-fit curve is fitted by a minimum of squares method. From this an IC50-value (expressed in μg/ml), resulting in 50% inhibition of enzymatic activity, was obtained.

[2] = system: Staphylococcus aureus ATCC 29213; assay: Antibacterial susceptibility testing, IC90 determination (STA 361.159); assay type: cell-based; conditions: STA ATCC 29213; 90% inhibitory concentration for bacterial growth
Method: D.2 In Vitro Method for Testing Compounds for Antibacterial Activity Against Various Bacterial Strains Preparation of Bacterial Suspensions for Susceptibility Testing
(§1) The following bacteria were used: Staphylococcus aureus ATCC 29213, methicillin-resistant Staphylococcus aureus (MRSA) ATCC 700788 and Escherichia coli ATCC 35218. The bacteria used in this study were grown overnight in flasks containing 100 ml Mueller-Hinton broth (Difco cat. nr. 0757-17) in sterile de-ionized water, with shaking, at 37° C. Stocks were store at −70° C. until use.
(§2) Bacteria were incubated on a tryptic soy agar plate containing 5% sheep blood (Becton Dickinson cat. nr. 254053) for 18-24 hours at 35° C. in aerobic conditions (first passage). For the second passage, fresh Mueller-Hinton broth is inoculated with 5-10 colonies and grown overnight at 35° C. until turbidity (reaching log-phase) in aerobic conditions is reached. The bacterial suspension is then adjusted to 0.5 McFarland density and further diluted 1:100 in Mueller Hinton broth medium. This is used as inoculum.
Antibacterial Susceptibility Testing: IC90 Determination
(§3) MIC assays were performed by the broth microdilution method in a 96-well format (flat-bottom microtitre plates) with a final volume of 0.1 ml Mueller Hinton broth containing two-fold serial dilutions of compounds and inoculated with 5×10^5 CFU/ml of bacteria (standard inoculum size according to CLSI guidelines). Inhibitors are typically varied over the range of 63 to 0.49 μM. The final DMSO concentration in the assay was 1.25% (maximum tolerable DMSO concentration=6%). In the assays where the effect of human serum on the activity of the compounds against S. aureus was tested, human serum was added at a final concentration of 10%. The plates were incubated at 35° C. for 16-20 hours. At the end of incubation the bacterial growth was quantified fluorometrically. For this, resazurin was added to all wells and the plates were re-incubated. The incubation time is dependent on the type of bacteria. A change in color from blue to pink indicated the growth of bacteria. The fluorescence was read in computer-controlled fluorometer (Fluoroskan Ascent FL, Labsystems) at an excitation wavelength 540 nm and an emission wavelength of 590 nm. The % growth inhibition achieved by the compounds was calculated according to standard methods. The IC90 (expressed in μg/ml) was defined as the 90% inhibitory concentration for bacterial growth. A panel of reference compounds were simultaneously tested for QC approval.

[3] = system: Human HelaM cells; assay: Cytotoxicity MTT assay (TOX HELAM 222.125); assay type: cell-based; conditions: 72 hours
Method: Cytotoxicity of the compounds was evaluated using the MTT assay. Human HelaM cells grown in 96-well plates were exposed to serial dilutions of the tested compounds (final volume of 0.2 ml) and incubated for 72 hours at 37° C. and 5% CO2 Inhibitors are typically varied over the range of 25 to 0.8 μM. The final DMSO concentration in the assay is 0.5%. MTT (3-(4,5-Dimethylthiazol-2-yl)-2,5-diphenyltetrazolium bromide, a tetrazole) was added and reduced to purple formazan only in living cells. Solubilization of the formazan crystals was achieved by adding 100 μl 2-propanol. Cell viability was determined by measuring the absorbance of the reduced formazan, giving a purple color, at 540 nm and 690 nm. The absorbance measured at 690 nm was automatically subtracted from the absorbance at 540 nm, to eliminate the effects of non-specific absorption. The percent cytotoxicity achieved by the compounds was calculated according to standard methods. Cytotoxicity is reported as CC50, the concentration that causes a 50% reduction in cell viability.
The results are depicted in the table D2 below (TOX HELAM).

[4] = system: S. aureus; assay: Antibacterial susceptibility testing, IC90 with 10% human serum (STA + 10% HS 361.169); assay type: cell-based, Staphylococcus aureus; conditions: S. aureus with 10% human serum
Method: as §1, §2, §3
The results are depicted in the table D2 below (STA+10% HS).

Row | Structure (SMILES) | FabI IC50 [1] [µg/mL] | STA (361.159) IC90 [2] [µg/mL] | TOX HELAM (222.125) CC50 [3] [µg/mL] | STA + 10% HS (361.169) IC90 [4] [µg/mL]
1 | O=C1CCc2cc(/C=C/C(=O)N3CCCC(Oc4ccccc4)C3)cnc2N1 (centres unmarked) [compound 1] | 3.52 | – | – | –
2 | COc1ccccc1C1=CCN(C(=O)/C=C/c2cnc3c(c2)CCC(=O)N3)CC1 [compound 2] | 0.32 | 1.97 | >9.783 | 2.99
3 | O=C1CCc2cc(/C=C/C(=O)N3CCc4ccccc4C3)cnc2N1 [compound 3] | 0.48 | 8.67 | >8.374 | 10.79
4 | O=C1CCc2cc(/C=C/C(=O)N3CCC(c4ccccc4)CC3)cnc2N1 [compound 4] | 0.29 | 4.99 | >9.079 | 4.60
5 | O=C1CCc2cc(/C=C/C(=O)N3CCC(c4cccc(O)c4)CC3)cnc2N1 [compound 5] | 0.35 | 10.52 | >9.481 | 11.14
6 | O=C1CCc2cc(/C=C/C(=O)N3CCC(C(=O)c4ccccc4)CC3)cnc2N1 [compound 6] | 1.74 | – | – | –
7 | O=C1CCc2cc(/C=C/C(=O)N3CC=C(c4ccccc4)CC3)cnc2N1 [compound 7] | 0.41 | 2.07 | >9.028 | 2.54
8 | O=C1CCc2cc(/C=C/C(=O)N3CC=C(c4ccc5c(c4)OCO5)CC3)cnc2N1 [compound 8] | 0.53 | – | – | –
9 | O=C1CCc2cc(/C=C/C(=O)N3CC=C(c4ccco4)CC3)cnc2N1 [compound 9] | 0.34 | 2.91 | >8.776 | 2.65
10 | O=C1CCc2cc(/C=C/C(=O)N3CC=C(c4ccoc4)CC3)cnc2N1 [compound 10] | 0.48 | 10.43 | >8.776 | 20.34
11 | O=C1CCc2cc(/C=C/C(=O)N3CCC(O)(c4ccc(Cl)cc4)CC3)cnc2N1 [compound 11] | 0.80 | – | – | –
12 | O=C1CCc2cc(/C=C/C(=O)N3CCC(Cc4ccccc4)CC3)cnc2N1 [compound 12] | 0.31 | 1.19 | >9.431 | 2.09
13 | COc1ccccc1C1CCN(C(=O)/C=C/c2cnc3c(c2)CCC(=O)N3)CC1 [compound 13] | 0.53 | – | – | –
14 | COc1ccccc1CC1=CCN(C(=O)/C=C/c2cnc3c(c2)CCC(=O)N3)CC1 [compound 14] | 1.06 | 6.93 | >10.1352 | 13.06
15 | O=C1CCc2cc(/C=C/C(=O)N3CC=CCC3)cnc2N1 [compound 15] | 3.57 | – | – | –
16 | O=C1CCc2cc(/C=C/C(=O)N3CC=C(c4ccccc4Cl)CC3)cnc2N1 [compound 16] | 0.58 | 3.31 | 8.04 | 8.52
17 | O=C1CCc2cc(/C=C/C(=O)N3CC=C(c4cc5ccccc5o4)CC3)cnc2N1 [compound 17] | 1.91 | – | – | –
18 | O=C1CCc2cc(/C=C/C(=O)N3CC=C(c4cccnc4)CC3)cnc2N1 [compound 18] | 0.67 | – | – | –

Row | Structure (SMILES) | FabI IC50 [1] [µg/mL] | STA (361.159) IC90 [2] [µg/mL] | TOX HELAM (222.125) CC50 [3] [µg/mL] | STA + 10% HS (361.169) IC90 [4] [µg/mL]
19 | O=C1CCc2cc(/C=C/C(=O)N3CC=C(c4cccc(C(F)(F)F)c4)CC3)cnc2N1 [compound 19] | 1.12 | – | – | –
20 | COc1ccncc1C1=CCN(C(=O)/C=C/c2cnc3c(c2)CCC(=O)N3)CC1 [compound 20] | 0.78 | 13.23 | >9.808 | 16.85
21 | COc1ccccc1C1=CCCN(C(=O)/C=C/c2cnc3c(c2)CCC(=O)N3)C1 [compound 21] | 0.80 | – | – | –
22 | COc1ccc(C2=CCN(C(=O)/C=C/c3cnc4c(c3)CCC(=O)N4)CC2)cc1 [compound 23] | 0.85 | – | – | –
23 | O=C1CCc2cc(/C=C/C(=O)N3CCN(Cc4ccccc4)CC3)cnc2N1 [compound 24] | 7.17 | – | – | –
24 | O=C1CCc2cc(/C=C/C(=O)N3CCN(c4ccccc4)CC3)cnc2N1 [compound 25] | 1.48 | – | – | –
25 | O=C1CCc2cc(/C=C/C(=O)N3CCCCC3)cnc2N1 [compound 26] | 2.73 | – | – | –
26 | O=C1CCc2cc(/C=C/C(=O)N3CCC(Oc4ccccc4)CC3)cnc2N1 [compound 28] | 0.93 | – | – | –
27 | O=C1CCc2cc(/C=C/C(=O)N3CCC(CCOc4ccccc4)CC3)cnc2N1 [compound 29] | 1.00 | – | – | –
28 | O=C1CCc2cc(/C=C/C(=O)N3CCC(CCOc4ccc(F)cc4)CC3)cnc2N1 [compound 30] | 1.34 | – | – | –
29 | O=C1CCc2cc(/C=C/C(=O)N3CCC(Cc4coc5cc(F)ccc45)CC3)cnc2N1 [compound 31] | 0.79 | – | – | –
30 | O=C1CCc2cc(/C=C/C(=O)N3CCC(Cc4nc5ccccc5s4)CC3)cnc2N1 [compound 32] | 1.72 | – | – | –
31 | O=C1CCc2cc(/C=C/C(=O)N3CCC(Cn4cnnc4)CC3)cnc2N1 [compound 38] | >7.31 | – | – | –
32 | O=C1CCc2cc(/C=C/C(=O)N3CCC(Cn4ccc5ccccc54)CC3)cnc2N1 [compound 39] | 2.74 | – | – | –
33 | O=C1CCc2cc(/C=C/C(=O)N3CCC(Cn4cncn4)CC3)cnc2N1 [compound 40] | 1.43 | – | – | –
34 | O=C1CCc2cc(/C=C/C(=O)N3CCC(Cc4ccc5ccccc5n4)CC3)cnc2N1 [compound 41] | 3.39 | – | – | –
35 | Cc1ccc(-c2ccccc2)n1CC1CCN(C(=O)/C=C/c2cnc3c(c2)CCC(=O)N3)CC1 [compound 42] | 10.18 | – | – | –
